These results are taken from ChEMBL document CHEMBL1201862, “PubChem BioAssay data set” (2004).

Structures are written as SMILES.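 Five compound concentrations were applied to cells in 96-well plates for 48 hours; endpoints were derived by simple linear interpolation of the resulting dose-response curve. GI50 is the concentration that inhibits growth by half.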 Activity calls are given as the source filed them. No stated cut-off is given here; in the data, active = GI50 up to about 1.1 µM and inactive = higher.

Among the test systems are Malme-3M; HT-29; EKVX; MDA-MB-435; 786-0; NCI-H522; MOLT-4; SF-295; SK-OV-3; ACHN; A498; A549; HCT-116; OVCAR-8; LOX IMVI; CAKI-1; KM12; CCRF-CEM; MCF7; HOP-92.
Holding throughout (assay): NCI-60 cell line screen, 48 h

Regarding `OC1COC(OCc2ccccc2)C(O)C1O` (stereo not given), the GI50 with Malme-3M, in the test on HT-29, in the test on EKVX, in the test on MDA-MB-435, with 786-0 and in the test with NCI-H522 was > 100 µM (inactive) each time. For the same molecule, the GI50 in the test on MOLT-4, with SF-295, in the test with SK-OV-3, with ACHN, with A498 and with A549 was > 100 µM (inactive) throughout. Moreover, the GI50 in the test with HCT-116, in the test with OVCAR-8, in the test with LOX IMVI, in the test on CAKI-1, in the test on KM12 and in the test on CCRF-CEM was > 100 µM (inactive) in each case. Besides, the GI50 in the test on MCF7 and with HOP-92 was > 100 µM (inactive) throughout.

As to `CC(C)(C)c1ccc(O)c(C[N+](C)(C)C)c1`, the GI50 in the test with Malme-3M is > 100 µM (inactive); with HT-29 it was > 100 µM (inactive); with EKVX it was 93.1 µM (inactive); with MDA-MB-435 it was > 100 µM (inactive); in the test with 786-0, > 100 µM (inactive); with NCI-H522, 34.3 µM (inactive). The GI50 is > 100 µM (inactive) with MOLT-4; > 100 µM (inactive) in the test with SF-295; > 100 µM (inactive) in the test on SK-OV-3; > 100 µM (inactive) in the test on ACHN; 47.5 µM (inactive) in the test on A498; > 100 µM (inactive) with A549. Besides, the GI50 with HCT-116, in the test with OVCAR-8, in the test on LOX IMVI, in the test with CAKI-1, in the test on KM12 and with CCRF-CEM was > 100 µM (inactive) each time. Moreover, the GI50 in the test on MCF7 and with HOP-92 was > 100 µM (inactive) in each case.

`CC(=O)N1N=C(N)CC1=O`: the GI50 in the test with Malme-3M, with HT-29, in the test on EKVX, in the test on MDA-MB-435, in the test on 786-0 and with NCI-H522 was > 100 µM (inactive) throughout. In addition, the GI50 with MOLT-4, in the test on SF-295, in the test on SK-OV-3, in the test with ACHN, in the test with A498 and in the test on A549 was > 100 µM (inactive) throughout. Moreover, the GI50 with HCT-116, in the test with OVCAR-8, with LOX IMVI, with CAKI-1, in the test on KM12 and with CCRF-CEM was > 100 µM (inactive) throughout. The GI50 in the test with MCF7 and in the test on HOP-92 was > 100 µM (inactive) each time.

As for `CCOC(=O)[C@H](O)[C@@H](O)C(=O)NCc1ccc(C(=O)c2ccccc2)cc1`, the GI50 in the test on Malme-3M, in the test with HT-29, in the test on EKVX, with MDA-MB-435, in the test on 786-0 and with NCI-H522 was > 100 µM (inactive) in each case. For the same molecule, the GI50 in the test with MOLT-4, in the test with SF-295, in the test with SK-OV-3, in the test on ACHN, in the test with A498 and in the test with A549 was > 100 µM (inactive) in each case. The GI50 in the test with HCT-116, in the test on OVCAR-8, in the test with LOX IMVI, in the test with CAKI-1, in the test on KM12 and in the test with CCRF-CEM was > 100 µM (inactive) each time. For the same molecule, the GI50 with MCF7 and in the test on HOP-92 was > 100 µM (inactive) each time.

Consider `CCCCCCC(=O)OC[n+]1ccc(-c2c(COC(=O)NC(C)C)c(COC(=O)NC(C)C)c3n2CCC3)cc1`, for which the GI50 is > 64.7 µM (inactive) with Malme-3M; > 100 µM (inactive) with HT-29; > 100 µM (inactive) in the test with EKVX; > 100 µM (inactive) with MDA-MB-435; 39.6 µM (inactive) with 786-0; 57 µM (inactive) in the test on NCI-H522. In addition, the GI50 with MOLT-4 is 25.2 µM (inactive); with SF-295, > 75.2 µM (inactive); in the test on SK-OV-3, > 100 µM (inactive); in the test with ACHN, 41 µM (inactive); with A498, 46.9 µM (inactive); in the test on A549, > 87.7 µM (inactive). Besides, the GI50 with HCT-116 is > 89.9 µM (inactive); in the test with OVCAR-8 it was > 100 µM (inactive); in the test on LOX IMVI, 42.9 µM (inactive); in the test on CAKI-1, 30.8 µM (inactive); in the test with KM12, > 100 µM (inactive); in the test on CCRF-CEM, 24.6 µM (inactive). Besides, the GI50 in the test on MCF7 was 45.8 µM (inactive); with HOP-92 it was 63.5 µM (inactive).

For the molecule `COc1ccccc1OCC(=N/NC(=O)c1ccncc1)/N=C/c1cccnc1`, the GI50 in the test with Malme-3M, in the test on HT-29, in the test on EKVX, in the test on MDA-MB-435, in the test on 786-0 and with NCI-H522 was > 100 µM (inactive) throughout. Moreover, the GI50 in the test with MOLT-4, in the test on SF-295, in the test with SK-OV-3, in the test with ACHN, in the test with A498 and in the test on A549 was > 100 µM (inactive) in each case. Further, the GI50 with HCT-116, in the test with OVCAR-8, with LOX IMVI, in the test on CAKI-1, in the test with KM12 and in the test with CCRF-CEM was > 100 µM (inactive) in each case. Moreover, the GI50 in the test with MCF7 and with HOP-92 was > 100 µM (inactive) throughout.

With `COc1ccccc1C1C2=C(COC2=O)Oc2cc3c(cc21)OCO3` (stereo not given), the GI50 in the test with Malme-3M is 14.1 µM (inactive); with HT-29 it was 1.65 µM (inactive); in the test with EKVX, 2.29 µM (inactive); in the test with MDA-MB-435 it was 0.249 µM (active); in the test with 786-0, 3.18 µM (inactive); in the test on NCI-H522, 0.619 µM (active). In addition, the GI50 in the test on MOLT-4 is 1.59 µM (inactive); with SF-295, 2.17 µM (inactive); in the test with SK-OV-3, 3.46 µM (inactive); in the test on ACHN it was 14 µM (inactive); with A498, 2.23 µM (inactive); in the test with A549, 3.87 µM (inactive). In addition, the GI50 with HCT-116 was 1.87 µM (inactive); in the test with OVCAR-8, 3.39 µM (inactive); with LOX IMVI, 2.27 µM (inactive); with CAKI-1 it was 3.55 µM (inactive); in the test with KM12, 1.33 µM (inactive); in the test on CCRF-CEM it was 2.13 µM (inactive). Further, the GI50 with MCF7 was 1.67 µM (inactive); with HOP-92 it was 8.3 µM (inactive).

Turning to `COC(=O)C1(C)CC2C(C)(CCC3(C)C4=CC=C5C(=CC(=O)C(O)=C5C)C4(C)CCC23C)CC1O` (stereo not given), the GI50 in the test on Malme-3M was 0.762 µM (active); in the test on HT-29, 0.634 µM (active); in the test on EKVX, 1.3 µM (inactive); with MDA-MB-435, 0.942 µM (active); in the test on 786-0 it was 0.226 µM (active); with NCI-H522, 0.2 µM (active). For the same molecule, the GI50 in the test on MOLT-4 is 0.285 µM (active); with SF-295 it was 1.78 µM (inactive); in the test with SK-OV-3, 2.07 µM (inactive); in the test on ACHN it was 0.45 µM (active); with A498, 1.93 µM (inactive); in the test on A549, 2.29 µM (inactive). Further, the GI50 is 0.564 µM (active) with HCT-116; 0.822 µM (active) in the test with OVCAR-8; 0.333 µM (active) in the test with LOX IMVI; 0.902 µM (active) with CAKI-1; 1.57 µM (inactive) in the test with KM12; 0.157 µM (active) with CCRF-CEM. Besides, the GI50 in the test on MCF7 is 1.6 µM (inactive); in the test on HOP-92 it was 0.635 µM (active).

On to `CC(NP(=O)(c1ccccc1)c1ccccc1)c1ccccc1` (stereo not given), for which the GI50 with Malme-3M, with HT-29, in the test with EKVX, in the test with MDA-MB-435, in the test on 786-0 and in the test with NCI-H522 was > 100 µM (inactive) in each case. In addition, the GI50 in the test on MOLT-4, with SF-295, in the test on SK-OV-3, in the test on ACHN, with A498 and in the test with A549 was > 100 µM (inactive) each time. Further, the GI50 with HCT-116, in the test with OVCAR-8, in the test with LOX IMVI, in the test on CAKI-1, in the test on KM12 and in the test with CCRF-CEM was > 100 µM (inactive) in each case. The GI50 with MCF7 and in the test on HOP-92 was > 100 µM (inactive) each time.

As for `COc1cc(/C=C/c2ccccn2)cc(OC)c1OC`, the GI50 in the test on Malme-3M, in the test on HT-29, in the test on EKVX, in the test with MDA-MB-435, in the test on 786-0 and in the test on NCI-H522 was > 10 µM (inactive) throughout. Also, the GI50 in the test with MOLT-4, with SF-295, in the test with SK-OV-3, with ACHN, in the test with A498 and with A549 was > 10 µM (inactive) each time. Also, the GI50 in the test with HCT-116, with OVCAR-8, with LOX IMVI, with CAKI-1, in the test on KM12 and in the test on CCRF-CEM was > 10 µM (inactive) in each case. The GI50 with MCF7 and in the test on HOP-92 was > 10 µM (inactive) each time.
